# Legend:
# Type in all cases: in vivo
# wild oat (Avena fatua) = assay: Test B postemergence; conditions: for Oat, Wild plant response rating: 125 g ai/ha, scale 0 to 100 (0 no effect, 100 complete control); for Plant response rating, Oat, Wild: 500 g ai/ha, scale 0 to 100
# Excerpt: (§1) Seeds selected from barnyardgrass (Echinochloa crus-galli), Surinam grass (Brachiaria decumbens), cocklebur (Xanthium strumarium), corn (Zea mays), crabgrass (Digitaria sanguinalis), giant foxtail (Setaria faberii), lambsquarters (Chenopodium album), morningglory (Ipomoea coccinea), pigweed (Amaranthus retroflexus), velvetleaf (Abutilon theophrasti), and wheat (Triticum aestivum) were planted and treated preemergence with test chemicals formulated in a non-phytotoxic solvent mixture which included a surfactant.
# (§2) At the same time, plants selected from these crop and weed species and also blackgrass (Alopecurus myosuroides) and wild oat (Avena fatua) were treated with postemergence applications of test chemicals formulated in the same manner. Plants ranged in height from 2 to 18 cm (1- to 4-leaf stage) for postemergence treatments. Plant species in the flooded paddy test consisted of rice (Oryza sativa), umbrella sedge (Cyperus difformis), duck salad (Heteranthera limosa) and barnyardgrass (Echinochloa crus-galli) grown to the 2-leaf stage for testing. Treated plants and controls were maintained in a greenhouse for 13 to 15 days, after which time all species were compared to controls and visually evaluated. Plant response ratings, summarized in Table B, are based on a scale of 0 to 100 where 0 is no effect and 100 is complete control. A dash (-) response means no test result.
# [1] = system: blackgrass (Alopecurus myosuroides); assay: Test B postemergence; conditions: for Blackgrass plant response rating: 125 g ai/ha, scale 0 to 100 (0 no effect, 100 complete control); for Plant response rating, Blackgrass: 500 g ai/ha, scale 0 to 100
# Excerpt: as §1, §2
# [2] = system: Surinam grass (Brachiaria decumbens); assay: Test B pre/postemergence
# Excerpt: as §1, §2
# [3] = system: pigweed (Amaranthus retroflexus); assay: Test B pre/postemergence
# Excerpt: as §1, §2
# [4] = system: wheat (Triticum aestivum); assay: Test B pre/postemergence
# Excerpt: as §1, §2
# [5] = system: cocklebur (Xanthium strumarium); assay: Test B pre/postemergence
# Excerpt: as §1, §2
# [6] = system: morningglory (Ipomoea coccinea); assay: Test B pre/postemergence
# Excerpt: as §1, §2
# [7] = system: barnyardgrass (Echinochloa crus-galli); assay: Test B pre/postemergence
# Excerpt: as §1, §2
# corn (Zea mays) = assay: Test B pre/postemergence
# Excerpt: as §1, §2
# [8] = system: giant foxtail (Setaria faberii); assay: Test B pre/postemergence
# Excerpt: as §1, §2
# [9] = system: crabgrass (Digitaria sanguinalis); assay: Test B pre/postemergence
# Excerpt: as §1, §2
# [10] = system: lambsquarters (Chenopodium album); assay: Test B pre/postemergence; conditions: Postemergence; for Lambsquarters plant response rating: 125 g ai/ha, scale 0 to 100 (0 no effect, 100 complete control); for Plant response rating, Lambsquarters: 500 g ai/ha, scale 0 to 100
# Excerpt: as §1, §2
# [11] = system: velvetleaf (Abutilon theophrasti); assay: Test B pre/postemergence
# Excerpt: as §1, §2
# [12] = Postemergence, 125 g ai/ha, scale 0 to 100 (0 no effect, 100 complete control)
# [13] = Postemergence, 500 g ai/ha, scale 0 to 100
# [14] = Preemergence, 125 g ai/ha, scale 0 to 100 (0 no effect, 100 complete control)
# [15] = Preemergence, 500 g ai/ha, scale 0 to 100 (0 no effect, 100 complete control)
compound,measurement,setting,value
CCOC(=O)c1nc(C2CC2)nc(NNC(C)=O)c1Br [Compound 126],"Oat, Wild plant response rating",wild oat (Avena fatua),0
same,"Plant response rating, Oat, Wild",wild oat (Avena fatua),20
same,Blackgrass plant response rating,[1],0
same,"Plant response rating, Blackgrass",[1],0
same,Surinam Grass plant response rating,[2]; [12],0
same,"Plant response rating, Surinam Grass",[2]; [13],70
same,"Plant response rating, Surinam Grass",[2]; [14],0
same,"Plant response rating, Surinam Grass",[2]; [15],20
same,Pigweed plant response rating,[3]; [12],0
same,"Plant response rating, Pigweed",[3]; [13],30
same,"Plant response rating, Pigweed",[3]; [14],20
same,"Plant response rating, Pigweed",[3]; [15],80
same,Wheat plant response rating,[4]; [12],0
same,"Plant response rating, Wheat",[4]; [13],0
same,"Plant response rating, Wheat",[4]; [14],0
same,"Plant response rating, Wheat",[4]; [15],0
same,Cocklebur plant response rating,[5]; [12],0
same,"Plant response rating, Cocklebur",[5]; [13],0
same,"Plant response rating, Cocklebur",[5]; [14],0
same,"Plant response rating, Cocklebur",[5]; [15],90
same,Morningglory plant response rating,[6]; [12],30
same,"Plant response rating, Morningglory",[6]; [13],60
same,"Plant response rating, Morningglory",[6]; [14],0
same,"Plant response rating, Morningglory",[6]; [15],70
same,Barnyardgrass plant response rating,[7]; [12],0
same,"Plant response rating, Barnyardgrass",[7]; [13],0
same,"Plant response rating, Barnyardgrass",[7]; [14],0
same,"Plant response rating, Barnyardgrass",[7]; [15],0
same,Corn plant response rating,corn (Zea mays); [12],0
same,"Plant response rating, Corn",corn (Zea mays); [13],10
same,"Plant response rating, Corn",corn (Zea mays); [14],0
same,"Plant response rating, Corn",corn (Zea mays); [15],0
same,"Foxtail, Giant plant response rating",[8]; [12],0
same,"Plant response rating, Foxtail, Giant",[8]; [13],0
same,"Plant response rating, Foxtail, Giant",[8]; [14],0
same,"Plant response rating, Foxtail, Giant",[8]; [15],0
same,Crabgrass plant response rating,[9]; [12],0
same,"Plant response rating, Crabgrass",[9]; [13],20
same,"Plant response rating, Crabgrass",[9]; [14],80
same,"Plant response rating, Crabgrass",[9]; [15],100
same,Lambsquarters plant response rating,[10],30
same,"Plant response rating, Lambsquarters",[10],40
same,Velvetleaf plant response rating,[11]; [12],10
same,"Plant response rating, Velvetleaf",[11]; [13],20
same,"Plant response rating, Velvetleaf",[11]; [14],10
same,"Plant response rating, Velvetleaf",[11]; [15],20
CCOC(=O)c1nc(C2CC2)nc(NOC(C)(C)C)c1Br [Compound 55],"Oat, Wild plant response rating",wild oat (Avena fatua),0
same,"Plant response rating, Oat, Wild",wild oat (Avena fatua),20
same,Blackgrass plant response rating,[1],30
same,"Plant response rating, Blackgrass",[1],40
same,Surinam Grass plant response rating,[2]; [12],0
same,"Plant response rating, Surinam Grass",[2]; [13],0
same,"Plant response rating, Surinam Grass",[2]; [14],0
same,"Plant response rating, Surinam Grass",[2]; [15],50
same,Pigweed plant response rating,[3]; [12],70
same,"Plant response rating, Pigweed",[3]; [13],80
same,"Plant response rating, Pigweed",[3]; [14],80
same,"Plant response rating, Pigweed",[3]; [15],100
same,Wheat plant response rating,[4]; [12],0
same,"Plant response rating, Wheat",[4]; [13],0
same,"Plant response rating, Wheat",[4]; [14],0
same,"Plant response rating, Wheat",[4]; [15],70
same,Cocklebur plant response rating,[5]; [12],20
same,"Plant response rating, Cocklebur",[5]; [13],80
same,"Plant response rating, Cocklebur",[5]; [14],70
same,"Plant response rating, Cocklebur",[5]; [15],90
same,Morningglory plant response rating,[6]; [12],80
same,"Plant response rating, Morningglory",[6]; [13],90
same,"Plant response rating, Morningglory",[6]; [14],80
same,"Plant response rating, Morningglory",[6]; [15],100
same,Barnyardgrass plant response rating,[7]; [12],0
same,"Plant response rating, Barnyardgrass",[7]; [13],50
same,"Plant response rating, Barnyardgrass",[7]; [14],0
same,"Plant response rating, Barnyardgrass",[7]; [15],60
same,Corn plant response rating,corn (Zea mays); [12],0
same,"Plant response rating, Corn",corn (Zea mays); [13],20
same,"Plant response rating, Corn",corn (Zea mays); [14],0
same,"Plant response rating, Corn",corn (Zea mays); [15],0
same,"Foxtail, Giant plant response rating",[8]; [12],20
same,"Plant response rating, Foxtail, Giant",[8]; [13],20
same,"Plant response rating, Foxtail, Giant",[8]; [14],0
same,"Plant response rating, Foxtail, Giant",[8]; [15],0
same,Crabgrass plant response rating,[9]; [12],0
same,"Plant response rating, Crabgrass",[9]; [13],30
same,"Plant response rating, Crabgrass",[9]; [14],50
same,"Plant response rating, Crabgrass",[9]; [15],60
same,Lambsquarters plant response rating,[10],70
same,"Plant response rating, Lambsquarters",[10],90
same,Velvetleaf plant response rating,[11]; [12],10
same,"Plant response rating, Velvetleaf",[11]; [13],30
same,"Plant response rating, Velvetleaf",[11]; [14],50
same,"Plant response rating, Velvetleaf",[11]; [15],90

# Reference: patent US8802597B2, “Herbicidal pyrimidines” (E I du Pont de Nemours and Company, priority 2003, dated 2014)
